The record followed here is patent US7713960B2, “Inhibition of the Raf/Mek/P-Erk pathway for treating cancer” (University of South Florida, priority 2005, dated 2010).

The test system of one data set is SF-539 cells. The data set can be described thus: Total cellular cAMP measurement, SF-539. The data set is classed as cell-based, human. The procedure:
Total cellular cAMP measurement—The measurement of total cellular cAMP was done using a cAMP Biotrak ™ Enzymeimmunoassay (EIA) system (Amersham Biosciences, Piscataway, N.J.) according to the manufacturer's protocol. Briefly, 2000 cells were plated into each well of a 96 well plate. The next day cells were treated with increasing concentrations of ARA-211 or with vehicle for one hour. Alternatively, MDA-MB-231 cells were pre-treated with antagonists to the α1 (Prazosin, Sigma), α2 (Yohimbine, Sigma), β1 (Metoprolol, Sigma), and β2 (ICI 118.551, Sigma) adrenergic receptors at 100 nM for 15 minutes followed by treatment with 10 μM ARA-211 for 45 minutes. Cells were then lysed directly in the wells using the supplied lysis buffer. The lysate was transferred to a 96-well cAMP ELISA plate, and results were quantified using a Wallac Victor 2 plate reader.

A further data set deals with P-Erk 1/2. In words: P-Erk 1/2 levels (Western blotting), MDA-MB-231. The data set is classed as cell-based, human. The method, then: (§1) Western Blotting—Treated cell samples were lysed in 30 mM HEPES, 10 mM NaCl, 5 mM MgCl2, 25 mM NaF, 1 mM EGTA, 1% Triton-X-100, 10% Glycerol, 2 mM Sodium orthovanidate, 10 μg/mL aprotinin, 10 μg/mL soybean trypsin inhibitor, 25 μg/mL leupeptin, 2 mM phenylmethylsulfonylfluoride (PMSF), 6.4 mg/mL p-nitrophenylphosphate for 30 minutes at 4° C., and proteins run on SDS-PAGE gels then transferred to nitrocellulose membranes. Membranes were blocked in either 5% milk in PBS, pH 7.4, containing 0.1% Tween-20 (PBS-T) or 1% BSA in TBS, pH 7.5, containing 0.1% Tween-20 (TBS-T). Phospho-STAT3 and phospho-AKT antibodies were diluted in 1% BSA in TBS-T while phospho-c-Raf, phospho-Mek, and phospho-p44/p42 MAPK antibodies (Cell Signaling) were diluted in 5% milk in PBS-T for either 1 hour at room temperature or overnight at 4° C. HRP-conjugated secondary antibodies (Jackson ImmunoResearch, West Grove, Pa.) were diluted in 5% milk in PBS-T or TBS-T at a 1:1000 dilution for one hour at room temperature. Western blots results were visualized using enhanced chemiluminescence. Stripping of the membranes for reblotting was done using stripping buffer (62.5 mM Tris pH 7.6, 2% SDS, 0.7% 2-mercaptoethanol) at 50° C. for 30 minutes.
(Immunoblotting shows a protein as a band on a membrane.)

The subject of a further data set is P-STAT3. In words: P-STAT3 levels (Western blotting), MDA-MB-231. The data set is classed as cell-based, human. The method, then: as §1
A further data set concerns MDA-MB-231 cells. The data set can be described thus: Alamar Blue proliferation assay, MDA-MB-231. The format is cell-based, human. The note with it: MDA-MB-231 with CA-Mek; 10 μM, 48 hours. The method, then: Cell Lines and Transfections—All cell lines used were obtained from American Type Tissue Collection (ATCC), (Manassas, Va.), or from the DCTD Tumor Repository, (Frederick, Md.). Propagation was carried out according to ATCC protocols. Propagation media was obtained from Invitrogen Corporation (Carlsbad, Calif.). DNA transfections were carried out using TransIT-LT1 transfection reagent (Takara Mirus, Madison, Wis.) according to the manufacturer's protocol. Briefly, 4×10^5 MDA-MB-231 cells were grown to approximately 70% confluency in medium supplemented with 10% FBS (Atlanta Biologicals, Atlanta, Ga.) in the absence of antibiotics. For transfection, LT1 was pre-incubated in 200 μl per transfection in Opti-MEM (Invitrogen) for 20 minutes prior to addition of plasmid. […]
Alamar Blue proliferation assay—For proliferation assays using exogenous constitutively activated MEK or the B2AR antagonist ICI-118.551, Alamar Blue metabolism assay used to determine cell viability according to the manufacturers protocol (Biosource, Camarillo, Calif.). […] Media/Alamar Blue was removed from the cells and aliquoted into 96 well plates (100 μl per well) and fluorescence read on a Wallac Victor 2 plate reader at excitation 540 nm, and emission 615 nm.
On the technique in general: Alamar Blue is a resazurin reagent that responds to reducing activity.

The next data set relates to Rap-1. In words: Rap-1 activation assay, ACHN cells. The data set is classed as cell-based, human. The procedure:
The effect of B2AR stimulation on Rap1 was investigated using the following methods: A Rap-1 activation assay kit (Upstate, Temecula, Calif.) was used according to protocol to determine if stimulation of the B2AR by ARA-211, and subsequent downstream signaling resulting in inhibition of P-Erk 1/2, is mediated by activation of Rap-1 directly by the Rap-1 guanine nucleotide exchange factor Epac. […] Cells were incubated with drugs for 1 hour unless noted otherwise. Cells were then lysed, the positive control lysate was incubated with 10 mM EDTA and 100 μM GTPγS and incubated for 30 minutes to load GTP onto Rap-1. Lysates from all samples were then incubated with 25 μg GST-RalGDS-Rap-1 binding domain beads for 45 minutes, washed with assay buffer 3×, resuspended in 40 μl of 2×Laemmli sample buffer and boiled for 5 minutes. Samples were resolved by SDS-PAGE electrophoresis, transferred to nitrocellulose, blotted overnight with 1 μ/ml polyclonal anti-Rap-1, and visualized by chemiluminescence.

A further data set has as its system SNB-19 cells. The data set can be described thus: Nude mouse xenograft model, SNB-19 (s.c.). The data set is classed as in vivo, nude mice. Particulars: SNB-19 xenograft; i.p. 75 mpk/day. From the text: Anti-tumor activity in nude mouse xenograft model—Female athymic nude (nu/nu) mice, 5-6 weeks old, were purchased from Charles River (Wilmington, Mass.) and allowed to acclimate in the animal facility for one week. After harvesting, A-549, SNB-19, ACHN, and HCT-116 cells were, resuspended in sterile PBS, and injected s.c. into the right and left flanks (10×10^6 cells per flank) of the mice as previously described (Sun et al., 2005). For MDA-MB-231, cells were harvested and resuspended in PBS (10×10^6 cells per 50 μl) and an equal volume of Matrigel (BD Biosciences, San Jose, Calif.). 100 μl of MDA-MB-231 cells in PBS/Matrigel were injected s.c. into the mammary fat pads between the 2nd and 3rd nipples on each side of the mice. Once the tumors reached approximately 200-300 mm^3 the mice were randomized and treated i.p. with 0.1 ml vehicle (PBS) or ARA-211. Each treatment group consisted of five mice (2 tumors per mouse, a total of 10 tumors). The tumor volumes were determined by measuring the length (l) and width (w) and calculating the volume (V=w^2l/2). Statistical significance between the control and treated animals was determined using a student's t test.

Structures can show the parent of a compound that is named as a salt.

For the compound `CC(C)(C)NCC(O)c1ccc(O)c(CO)n1` (stereo not drawn) [ARA-211, 2-hydroxymethyl-3-hydroxy-6-(1-hydroxy-2-tert-butylaminoethyl) pyridine, dihydrochloride], the “cAMP (Fold Induction)” value in the data set on SF-539 cells is recorded as 13.1 ± 3.0 Fold. For the same compound, the “P-Erk ½ (% Inhibition)” value with P-Erk 1/2 (MDA-MB-231) came to 100%. For the same compound, the “levels of P-Erk 1/2” value with P-Erk 1/2 (MDA-MB-231, at 10 nM) is “suppressed potently”. The “inhibition of P-Erk 1/2 in cells ectopically expressing constitutively activated Mek-1” value in the data set with P-Erk 1/2 (MDA-MB-231 with CA-Mek, 10 μM, 48 hours) is recorded as “resistant”. For the same compound, in the data set on P-STAT3, the P-STAT3 levels result was “not”. For the same compound, the “inhibition of tumor growth in cells ectopically expressing constitutively activated Mek-1” value in the data set with MDA-MB-231 cells is listed as “resistant”. Besides, in the data set with Rap-1 (10 μM, 1 hour), the “Rap-1 activation (GTP-loaded Rap-1)” value was “activated Rap-1”. Further, the “Rap-1 activation after blocking PKA kinase activity” value in the data set with Rap-1 (pre-treatment with 10 μM H89 (1 hr) followed by ARA-211) is recorded as “had no effect on the ability of ARA-211 to stimulate Rap-1 activation”. Further, the growth of tumors entry in the data set on SNB-19 cells was “is not affected”.
